Assay results published in the supplement of paper PMC10307832.

Tests used:
Assay in all cases: relative viability (nuclei count vs DMSO), 5 days (fraction); higher = more cells survive
Erlotinib + Foretinib = compound: C#Cc1cccc(Nc2ncnc3cc(OCCOC)c(OCCOC)cc23)c1 [Erlotinib] + COc1cc2c(Oc3ccc(NC(=O)C4(C(=O)Nc5ccc(F)cc5)CC4)cc3F)ccnc2cc1OCCCN1CCOCC1 [Foretinib] (partner 0.25 µM)
In short: (§1)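 Each reported value is a median over duplicate plates. It expresses relative viability: treated-well nuclei count divided by vehicle-well nuclei count. Lung cancer cell lines in 1536-well plates were dosed by pin tool a day after seeding, alone with one drug or with a fixed anchor-drug dose plus five library-drug doses (not always all listed) in √10 steps, and nuclei were counted after 5 days.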

Erlotinib + Tozasertib = compound: C#Cc1cccc(Nc2ncnc3cc(OCCOC)c(OCCOC)cc23)c1 [Erlotinib] + Cc1cc(Nc2cc(N3CCN(C)CC3)nc(Sc3ccc(NC(=O)C4CC4)cc3)n2)n[nH]1 [Tozasertib] (partner 0.1 µM)
In short: as §1

AT9283 + Crizotinib = compound: O=C(Nc1c[nH]nc1-c1nc2ccc(CN3CCOCC3)cc2[nH]1)NC1CC1 [AT9283] + C[C@@H](Oc1cc(-c2cnn(C3CCNCC3)c2)cnc1N)c1c(Cl)ccc(F)c1Cl [Crizotinib] (partner 1 µM)
In short: as §1

AT9283 + Linsitinib = compound: O=C(Nc1c[nH]nc1-c1nc2ccc(CN3CCOCC3)cc2[nH]1)NC1CC1 [AT9283] + C[C@]1(O)C[C@@H](c2nc(-c3ccc4ccc(-c5ccccc5)nc4c3)c3c(N)nccn32)C1 [Linsitinib] (partner 1 µM)
In short: as §1

AT9283 + Decitabine = compound: O=C(Nc1c[nH]nc1-c1nc2ccc(CN3CCOCC3)cc2[nH]1)NC1CC1 [AT9283] + Nc1ncn([C@H]2C[C@H](O)[C@@H](CO)O2)c(=O)n1 [Decitabine] (partner 2 µM)
In short: as §1

Cell Line	relative viability (Erlotinib + Foretinib; first compound 0.02 µM)	relative viability (Erlotinib + Foretinib; first compound 0.2 µM)	relative viability (Erlotinib + Foretinib; first compound 2 µM)	relative viability (Erlotinib + Tozasertib; first compound 0.02 µM)	relative viability (Erlotinib + Tozasertib; first compound 0.2 µM)	relative viability (Erlotinib + Tozasertib; first compound 0.6325 µM)	relative viability (Erlotinib + Tozasertib; first compound 2 µM)	relative viability (AT9283 + Crizotinib; first compound 0.003 µM)	relative viability (AT9283 + Crizotinib; first compound 0.03 µM)	relative viability (AT9283 + Crizotinib; first compound 0.09487 µM)	relative viability (AT9283 + Crizotinib; first compound 0.3 µM)	relative viability (AT9283 + Linsitinib; first compound 0.003 µM)	relative viability (AT9283 + Linsitinib; first compound 0.03 µM)	relative viability (AT9283 + Linsitinib; first compound 0.09487 µM)	relative viability (AT9283 + Linsitinib; first compound 0.3 µM)	relative viability (AT9283 + Decitabine; first compound 0.003 µM)	relative viability (AT9283 + Decitabine; first compound 0.03 µM)	relative viability (AT9283 + Decitabine; first compound 0.09487 µM)	relative viability (AT9283 + Decitabine; first compound 0.3 µM)	relative viability (Erlotinib + Foretinib; first compound 0.6325 µM)
NCI-H460	0.973	1.02	0.968	0.44	0.191	0.109	0.0585	0.729	0.786	0.0665	0.0361	0.761	0.0766	0.0186	0.0256	0.434	0.466	0.24	0.078	–
HCC-44	–	–	–	1.18	0.421	1.04	0.711	0.775	0.634	0.457	0.211	0.628	0.745	0.148	0.14	0.702	0.969	0.749	0.871	–
NCI-H2087	1.12	1.18	0.964	0.259	0.279	0.191	0.132	0.795	0.554	0.401	0.326	1.08	0.542	0.339	0.245	0.238	0.214	0.182	0.0988	1.12
UMC-11	1.04	0.973	1.08	0.208	0.189	0.204	0.198	0.58	0.075	0.0835	0.132	0.849	0.138	0.14	0.168	0.57	0.217	0.261	0.201	1.08
NCI-H1355	1.01	0.821	0.781	0.567	0.538	0.4	0.266	1.03	0.992	0.529	0.199	0.807	0.649	0.273	0.167	0.341	0.357	0.322	0.195	0.877
H3255	0.808	0.624	0.171	–	0.564	0.211	0.142	0.909	0.77	0.471	0.146	0.877	0.91	0.298	0.132	0.577	0.556	0.352	0.222	0.472
NCI-H2085	1.14	0.739	0.559	0.808	0.637	0.598	0.404	0.865	0.693	0.471	0.328	0.847	0.687	0.245	0.214	0.615	0.452	0.419	0.378	0.649
IA-LM	1.31	1.12	1.03	–	–	–	–	0.846	0.261	0.0839	0.132	0.626	0.432	0.311	0.102	–	–	–	–	1.19
LCLC-103H	0.743	0.799	0.566	0.434	0.48	0.595	0.313	1.04	0.963	0.932	0.5	0.952	1.04	1.07	0.419	0.755	0.774	0.444	0.35	0.848
NCI-H2405	–	1.02	1.01	0.765	0.722	0.686	0.565	0.826	0.634	0.272	0.217	1.06	0.632	0.315	0.221	0.732	0.725	0.381	0.24	1.09
NCI-H1666	1.06	0.86	0.767	0.551	0.523	0.498	0.482	1.08	0.777	0.377	0.311	0.964	0.779	0.265	0.355	0.6	0.589	0.669	0.534	0.802
COR-L 105	0.81	0.461	0.248	0.335	0.305	0.217	0.227	0.73	0.326	0.274	0.237	0.854	0.333	0.221	0.288	0.67	0.394	0.317	0.328	0.487
ABC-1	1.03	0.547	0.818	0.154	0.172	0.173	0.148	1.03	0.238	0.182	0.193	0.722	0.211	0.182	0.182	1.3	0.513	0.346	0.346	1.06
EPLC-272H	0.821	0.477	0.342	0.22	0.291	0.235	0.183	0.951	0.856	0.431	0.14	1.26	1.25	0.973	0.183	0.379	0.395	0.185	0.161	0.534
NCI-H1792	–	–	–	–	–	–	–	0.933	0.993	0.984	0.811	0.492	0.629	0.192	0.117	0.499	0.56	0.567	0.345	–
NCI-H2170	1.04	1.05	0.656	0.811	0.73	0.607	0.324	1.22	0.73	0.236	0.198	–	–	–	–	0.466	0.366	0.228	0.156	0.935
NCI-H2347	0.877	0.841	0.61	0.58	0.49	0.52	0.535	0.717	0.78	0.446	0.363	0.952	0.975	0.555	0.389	0.624	0.61	0.471	0.372	1.08
NCI-H1395	1.04	0.906	0.975	0.837	0.772	0.712	0.566	–	–	–	–	1.08	0.901	0.373	0.383	0.819	0.604	0.42	0.385	1.13
LU99A	0.861	0.833	0.678	0.305	0.271	0.263	0.221	0.492	0.28	0.185	0.168	0.409	0.196	0.165	0.165	0.868	0.404	0.195	0.226	0.829

Cell Line	relative viability (Erlotinib + Foretinib; first compound 0.02 µM)	relative viability (Erlotinib + Foretinib; first compound 0.2 µM)	relative viability (Erlotinib + Foretinib; first compound 2 µM)	relative viability (Erlotinib + Tozasertib; first compound 0.02 µM)	relative viability (Erlotinib + Tozasertib; first compound 0.2 µM)	relative viability (Erlotinib + Tozasertib; first compound 0.6325 µM)	relative viability (Erlotinib + Tozasertib; first compound 2 µM)	relative viability (AT9283 + Crizotinib; first compound 0.003 µM)	relative viability (AT9283 + Crizotinib; first compound 0.03 µM)	relative viability (AT9283 + Crizotinib; first compound 0.09487 µM)	relative viability (AT9283 + Crizotinib; first compound 0.3 µM)	relative viability (AT9283 + Linsitinib; first compound 0.003 µM)	relative viability (AT9283 + Linsitinib; first compound 0.03 µM)	relative viability (AT9283 + Linsitinib; first compound 0.09487 µM)	relative viability (AT9283 + Linsitinib; first compound 0.3 µM)	relative viability (AT9283 + Decitabine; first compound 0.003 µM)	relative viability (AT9283 + Decitabine; first compound 0.03 µM)	relative viability (AT9283 + Decitabine; first compound 0.09487 µM)	relative viability (AT9283 + Decitabine; first compound 0.3 µM)	relative viability (Erlotinib + Foretinib; first compound 0.6325 µM)
NCI-H650	1.03	1.02	0.924	–	–	0.767	0.58	0.6	0.368	0.222	0.22	0.7	0.601	0.262	0.164	0.319	0.333	0.229	0.162	1.19
NCI-H522	–	–	–	0.493	0.573	0.508	0.465	–	–	–	–	–	–	–	–	0.67	0.607	0.569	0.479	–
HCC-827	0.263	0.158	0.135	0.223	0.114	0.101	0.126	0.91	0.808	0.41	0.283	0.995	0.843	0.463	0.371	0.235	0.234	0.258	0.214	0.154
201T	–	–	0.888	0.965	0.915	0.877	0.707	0.996	1.02	0.478	0.468	1.02	1.02	0.8	0.409	0.654	0.849	0.322	0.345	1.17
Calu-6	0.94	0.838	0.803	–	–	–	–	0.742	0.253	0.238	0.291	0.859	0.286	0.222	0.197	–	–	–	–	0.886
EBC-1	0.0955	0.0898	0.0948	–	–	–	–	0.212	0.178	0.172	0.181	0.997	0.354	0.214	0.111	–	–	–	–	0.104
ChaGo-K-1	0.913	0.836	0.879	0.214	0.186	0.179	0.185	0.973	0.416	0.343	0.387	–	–	–	–	0.483	0.523	0.26	0.222	0.923
NCI-H1623	0.923	0.679	0.301	0.437	0.315	0.29	0.209	–	–	–	–	–	–	–	–	–	–	–	–	0.366
SW 900	0.98	0.92	0.757	0.514	0.487	0.33	0.257	–	–	–	–	–	–	–	–	0.422	0.442	0.349	0.232	0.792
A549	0.795	0.947	0.786	–	–	–	–	0.717	0.0751	0.0711	0.0659	0.539	0.311	0.0598	0.0613	0.136	0.114	0.0516	0.05	0.902
NCI-H1563	0.979	0.836	0.951	–	–	–	–	0.955	0.713	0.686	0.658	1.26	0.892	0.832	0.757	–	–	–	–	0.955
NCI-H1650	0.747	0.594	0.699	0.465	0.332	0.305	0.217	1.01	0.596	0.267	0.217	–	–	–	–	0.565	0.499	0.387	0.238	0.697
CAL-12T	1.04	1.04	0.484	0.357	0.226	0.188	0.153	0.642	0.293	0.276	0.232	0.905	0.286	0.22	0.202	–	–	–	–	0.513
NCI-H2342	1.08	0.899	–	0.444	0.495	0.491	0.361	–	–	–	–	–	–	–	–	0.653	0.766	0.655	0.455	0.932
NCI-H1703	0.33	0.419	0.357	–	–	–	–	0.694	0.401	0.211	0.225	0.985	0.284	0.258	0.223	–	–	–	–	0.343
NCI-H2228	0.897	0.885	0.815	0.237	0.164	0.169	0.142	0.587	0.272	0.195	0.171	0.823	0.632	0.17	0.175	–	–	–	–	0.946
NCI-H1299	1.11	1.08	1.07	–	–	–	–	1.01	0.475	0.339	0.346	0.888	0.705	0.402	0.256	–	–	–	–	1.16
NCI-H1648	–	–	–	0.489	0.434	0.555	0.252	–	–	–	–	–	–	–	–	0.515	0.503	0.409	0.303	–
NCI-H1793	0.575	0.421	0.408	0.307	0.258	0.235	0.161	–	–	–	–	0.941	0.859	0.339	0.209	0.498	0.469	0.283	0.266	0.541
